Assay results from ChEMBL document CHEMBL1201862, “PubChem BioAssay data set” (2004).
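48-hour exposure; five concentrations; linearly interpolated endpoints. The concentration for 50% growth inhibition is given as GI50.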 Active and inactive are the calls of the source. Rule as the data show it: active = GI50 up to about 1.1 µM and inactive = higher.

What was measured:
Assay in all cases: NCI tumour cell line growth inhibition, 48 h
CAKI-1 = test system: CAKI-1
CCRF-CEM = test system: CCRF-CEM
786-0 = test system: 786-0
TK-10 = test system: TK-10
UO-31 = test system: UO-31
HL-60 = test system: HL-60
HOP-92 = test system: HOP-92
KM12 = test system: KM12
HCC 2998 = test system: HCC 2998
EKVX = test system: EKVX
MOLT-4 = test system: MOLT-4
SW-620 = test system: SW-620
OVCAR-8 = test system: OVCAR-8
OVCAR-3 = test system: OVCAR-3
U-251 = test system: U-251
HT-29 = test system: HT-29
NCI-H522 = test system: NCI-H522
HCT-116 = test system: HCT-116
HOP-62 = test system: HOP-62

Measured: GI50

O=c1c2ccccc2c(=O)n2n1CC=CC2
inactive: CAKI-1 > 100 µM | CCRF-CEM > 100 µM | 786-0 > 100 µM | TK-10 > 100 µM | UO-31 > 100 µM | HL-60 > 100 µM | HOP-92 > 100 µM | KM12 > 100 µM | HCC 2998 > 100 µM | EKVX > 100 µM | MOLT-4 > 100 µM | SW-620 > 100 µM | OVCAR-8 > 100 µM | OVCAR-3 > 100 µM | U-251 > 100 µM | HT-29 > 100 µM | NCI-H522 > 100 µM | HCT-116 > 100 µM

COc1c(-c2ccccc2)nc2ccc(Oc3ccccc3)nn12
inactive: CAKI-1 > 68.4 µM | CCRF-CEM 8.65 µM | 786-0 > 61.5 µM | TK-10 > 100 µM | UO-31 > 61.8 µM | HL-60 7.33 µM | HOP-62 > 100 µM | HOP-92 > 100 µM | KM12 > 54.2 µM | HCC 2998 > 64.9 µM | EKVX > 100 µM | MOLT-4 14.1 µM | SW-620 > 75.7 µM | OVCAR-8 > 64 µM | OVCAR-3 > 77.6 µM | U-251 > 80.5 µM | HT-29 37 µM | NCI-H522 > 100 µM | HCT-116 13.2 µM

CCOc1ccc(/N=N/c2c(-c3ccccc3)nn(C(=O)CC(=O)Nc3ccccc3Cl)c2-c2ccccc2)cc1
inactive: CAKI-1 23.4 µM | CCRF-CEM 25.4 µM | 786-0 > 100 µM | TK-10 74.6 µM | UO-31 28.9 µM | HL-60 25.6 µM | HOP-62 93.8 µM | HOP-92 48.8 µM | KM12 46.1 µM | HCC 2998 41.5 µM | EKVX 44 µM | MOLT-4 34.1 µM | SW-620 > 100 µM | OVCAR-8 89.7 µM | OVCAR-3 35.8 µM | U-251 48.9 µM | HT-29 33.7 µM | NCI-H522 78 µM | HCT-116 35.6 µM

N=C1N(c2ccccc2)C(=O)C23CCCC2C13N1CCOCC1 (stereo unspecified)
inactive: CAKI-1 > 100 µM | CCRF-CEM > 100 µM | 786-0 > 100 µM | UO-31 > 100 µM | HL-60 > 100 µM | HOP-62 > 100 µM | HOP-92 > 100 µM | KM12 > 100 µM | HCC 2998 > 100 µM | EKVX > 100 µM | MOLT-4 > 100 µM | SW-620 > 100 µM | OVCAR-8 > 100 µM | OVCAR-3 > 100 µM | U-251 > 100 µM | HT-29 > 100 µM | NCI-H522 > 100 µM | HCT-116 > 100 µM

O=[N+]([O-])c1ccc2occ3c2c1CCC3
inactive: CCRF-CEM > 100 µM | 786-0 > 100 µM | TK-10 > 100 µM | UO-31 71.6 µM | HL-60 > 100 µM | HOP-62 > 100 µM | HOP-92 35.2 µM | KM12 > 100 µM | HCC 2998 > 100 µM | EKVX > 100 µM | MOLT-4 > 100 µM | SW-620 > 100 µM | OVCAR-8 > 100 µM | OVCAR-3 > 100 µM | U-251 > 100 µM | HT-29 > 100 µM | NCI-H522 > 100 µM | HCT-116 > 100 µM

CCOC(=N)CC(=O)Nc1ccccc1
inactive: CAKI-1 > 100 µM | CCRF-CEM 19.4 µM | 786-0 > 46.5 µM | TK-10 > 46.5 µM | UO-31 > 46.5 µM | HL-60 > 100 µM | HOP-62 > 46.5 µM | HOP-92 > 10 µM | KM12 > 46.5 µM | HCC 2998 > 31.6 µM | EKVX > 100 µM | MOLT-4 > 31.6 µM | SW-620 36.9 µM | OVCAR-8 > 21.5 µM | OVCAR-3 > 31.6 µM | U-251 > 100 µM | HT-29 > 46.5 µM | NCI-H522 > 100 µM | HCT-116 > 46.5 µM

C/C=C/COC(=O)CO[N+](=O)[O-]
inactive: CAKI-1 > 100 µM | CCRF-CEM > 100 µM | 786-0 > 100 µM | TK-10 > 100 µM | UO-31 > 100 µM | HL-60 > 100 µM | HOP-62 > 100 µM | HOP-92 > 100 µM | KM12 > 100 µM | HCC 2998 > 100 µM | EKVX > 100 µM | MOLT-4 > 100 µM | SW-620 > 100 µM | OVCAR-8 > 100 µM | OVCAR-3 > 100 µM | U-251 > 100 µM | HT-29 > 100 µM | NCI-H522 > 100 µM | HCT-116 > 100 µM

C1CCN(c2nc(=[N+]3CCCCC3)ss2)CC1
inactive: CAKI-1 > 100 µM | CCRF-CEM 43.7 µM | 786-0 > 100 µM | TK-10 > 100 µM | UO-31 > 100 µM | HL-60 > 100 µM | HOP-62 > 100 µM | HOP-92 > 100 µM | KM12 9.18 µM | HCC 2998 > 100 µM | EKVX > 100 µM | MOLT-4 > 100 µM | SW-620 > 100 µM | OVCAR-8 > 100 µM | U-251 49.5 µM | HT-29 > 100 µM | NCI-H522 > 100 µM | HCT-116 > 100 µM

O=CC1=CCCN(CCc2c[nH]c3ccccc23)C1
inactive: CAKI-1 75.5 µM | CCRF-CEM 23.4 µM | 786-0 62.2 µM | TK-10 76.6 µM | HL-60 11.2 µM | HOP-62 52.6 µM | HOP-92 64.9 µM | KM12 56.9 µM | HCC 2998 71.6 µM | EKVX 84.7 µM | MOLT-4 13.2 µM | SW-620 17.6 µM | OVCAR-8 48.5 µM | OVCAR-3 42.6 µM | U-251 52.5 µM | HT-29 56.4 µM | NCI-H522 69.3 µM | HCT-116 28.2 µM

Cc1ccccc1NC(=O)CC1C(=O)Nc2ccccc2[S+]1[O-] (stereo unspecified)
inactive: CAKI-1 > 100 µM | CCRF-CEM > 100 µM | 786-0 49.7 µM | TK-10 > 100 µM | UO-31 > 100 µM | HL-60 > 100 µM | HOP-92 52.7 µM | HCC 2998 > 100 µM | EKVX > 100 µM | MOLT-4 > 100 µM | SW-620 > 100 µM | OVCAR-8 47.9 µM | OVCAR-3 > 100 µM | U-251 51.1 µM | HT-29 > 100 µM | NCI-H522 > 100 µM | HCT-116 > 100 µM

CC(=O)OC1C/C(C)=C/CCC(C)/C=C/C2(C)CCC(C(C)(C)O)C12 (stereo unspecified)
inactive: CAKI-1 59 µM | CCRF-CEM 28.6 µM | 786-0 65 µM | TK-10 > 100 µM | UO-31 37.3 µM | HL-60 24.2 µM | HOP-62 88.1 µM | HOP-92 18.5 µM | KM12 51.2 µM | HCC 2998 57.4 µM | EKVX 63.2 µM | MOLT-4 30.4 µM | SW-620 47.5 µM | OVCAR-8 57 µM | OVCAR-3 46.7 µM | U-251 39.4 µM | HT-29 33.4 µM | HCT-116 26.2 µM
